Molecular target: T1, Dopamine beta hydroxylase (Homo sapiens, UniProt P09172)
T1 construct: 125 μl of plasma; tissue Instituto Português do Sangue Transplantação; host or cells: human plasma from healthy donors
T1 sequence (P09172 40-617 limits assumed): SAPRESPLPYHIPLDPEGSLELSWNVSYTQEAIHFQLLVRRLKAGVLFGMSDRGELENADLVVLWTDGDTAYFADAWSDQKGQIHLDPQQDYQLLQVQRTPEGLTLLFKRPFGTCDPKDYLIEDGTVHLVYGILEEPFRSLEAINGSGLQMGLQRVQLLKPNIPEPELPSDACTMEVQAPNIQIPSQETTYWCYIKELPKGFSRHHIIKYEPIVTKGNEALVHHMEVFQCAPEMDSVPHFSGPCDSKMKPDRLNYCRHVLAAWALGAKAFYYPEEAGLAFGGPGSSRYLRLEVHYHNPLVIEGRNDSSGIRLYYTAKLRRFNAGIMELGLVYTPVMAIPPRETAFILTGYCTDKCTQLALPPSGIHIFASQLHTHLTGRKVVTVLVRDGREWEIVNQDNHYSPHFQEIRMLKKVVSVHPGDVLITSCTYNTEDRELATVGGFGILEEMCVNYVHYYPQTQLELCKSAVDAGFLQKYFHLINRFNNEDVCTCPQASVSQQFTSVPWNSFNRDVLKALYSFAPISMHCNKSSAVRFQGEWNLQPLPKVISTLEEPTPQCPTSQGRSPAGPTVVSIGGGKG
Test: Dopamine beta hydroxylase activity in human plasma
Assay type: biochemical
Settings: for Plasma (0.01 μM), activity in % of control: inhibitor 0.01 μM; for Plasma (0.1 μM), activity in % of control: inhibitor 0.1 μM
In short: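 Healthy-donor human plasma pre-incubated 10 min at 37° C with compound at final 10, 100 or 1000 nM in pH 5.0 acetate buffer with ascorbate, fumarate, pargyline, N-ethylmaleimide, catalase and copper sulfate. Tyramine substrate then added for 45 min; octopamine formed was isolated by SCX cartridge, periodate-converted and read at 330 nm; activity given as % control.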

## Cl.Cn1c(CCN2CCOCC2)c2n(c1=S)C[C@@H](c1c(F)c(F)cc(F)c1F)C2 [Example 257, (R)-2-methyl-1-(2-morpholinoethyl)-6-(2,3,5,6-tetrafluorophenyl)-2,5,6,7-tetrahydro-3H-pyrrolo[1,2-c]imidazole-3-thione Hydrochloride]
  Plasma (0.01 μM), activity in % of control: 105.9 % of control
  Plasma (0.1 μM), activity in % of control: 92.4 % of control

## Cn1c(CC(=O)Nc2ccccn2)c2n(c1=S)C[C@H](c1c(F)ccc(Cl)c1F)C2 [Example 258, (S)-2-(6-(3-chloro-2,6-difluorophenyl)-2-methyl-3-thioxo-3,5,6,7-tetrahydro-2H-pyrrolo[1,2-c]imidazol-1-yl)-N-(pyridin-2-yl)acetamide]
  Plasma (0.01 μM), activity in % of control: 84.2 % of control
  Plasma (0.1 μM), activity in % of control: 21.3 % of control

## Cn1c(CCc2cccnc2)c2n(c1=S)C[C@@H](c1c(F)c(F)cc(F)c1F)C2 [Example 259, (R)-2-methyl-1-(2-(pyridin-3-yl)ethyl)-6-(2,3,5,6-tetrafluorophenyl)-6,7-dihydro-2H-pyrrolo[1,2-c]imidazole-3(5H)-thione]
  Plasma (0.01 μM), activity in % of control: 90.8 % of control
  Plasma (0.1 μM), activity in % of control: 76.1 % of control

## Cn1c(CCC(=O)O)c2n(c1=S)C[C@@H](c1c(F)c(F)cc(F)c1F)C2 [Example 260, (R)-3-(2-methyl-6-(2,3,5,6-tetrafluorophenyl)-3-thioxo-2,5,6,7-tetrahydro-3H-pyrrolo[1,2-c]imidazol-1-yl)propanoic Acid]
  Plasma (0.01 μM), activity in % of control: 84.1 % of control
  Plasma (0.1 μM), activity in % of control: 26.5 % of control

## Cn1c(CCC(=O)N2CCCC2)c2n(c1=S)C[C@@H](c1c(F)c(F)cc(F)c1F)C2 [Example 261, (R)-3-(2-methyl-6-(2,3,5,6-tetrafluorophenyl)-3-thioxo-2,5,6,7-tetrahydro-3H-pyrrolo[1,2-c]imidazol-1-yl)-1-(pyrrolidin-1-yl)propan-1-one]
  Plasma (0.01 μM), activity in % of control: 86.2 % of control
  Plasma (0.1 μM), activity in % of control: 31.8 % of control

## Cn1c(CCC(N)=O)c2n(c1=S)C[C@H](c1c(F)ccc(Cl)c1F)C2 [Example 262, (S)-3-(6-(3-chloro-2,6-difluorophenyl)-2-methyl-3-thioxo-2,5,6,7-tetrahydro-3H-pyrrolo[1,2-c]imidazol-1-yl)propanamide]
  Plasma (0.01 μM), activity in % of control: 82.6 % of control
  Plasma (0.1 μM), activity in % of control: 70.1 % of control

## Cn1c(CCC(N)=O)c2n(c1=S)C[C@@H](c1c(F)cccc1F)C2 [Example 263, (R)-3-(6-(2,6-difluorophenyl)-2-methyl-3-thioxo-2,5,6,7-tetrahydro-3H-pyrrolo[1,2-c]imidazol-1-yl)propanamide]
  Plasma (0.01 μM), activity in % of control: 103.3 % of control
  Plasma (0.1 μM), activity in % of control: 87.1 % of control

## Cn1c(CCC(=O)N2CCCC2)c2n(c1=S)C[C@@H](c1c(F)cccc1F)C2 [Example 264, (R)-3-(6-(2,6-difluorophenyl)-2-methyl-3-thioxo-2,5,6,7-tetrahydro-3H-pyrrolo[1,2-c]imidazol-1-yl)-1-(pyrrolidin-1-yl)propan-1-one]
  Plasma (0.01 μM), activity in % of control: 98.4 % of control
  Plasma (0.1 μM), activity in % of control: 54.2 % of control

## Cn1c(CCC(=O)N[C@@H]2CCOC2)c2n(c1=S)C[C@@H](c1c(F)ccc(F)c1F)C2 [Example 265, 3-((R)-2-methyl-3-thioxo-6-(2,3,6-trifluorophenyl)-2,5,6,7-tetrahydro-3H-pyrrolo[1,2-c]imidazol-1-yl)-N—((R)-tetrahydrofuran-3-yl)propanamide]
  Plasma (0.01 μM), activity in % of control: 94.9 % of control
  Plasma (0.1 μM), activity in % of control: 70.6 % of control

## Cn1c(CCC(=O)N2CCOCC2)c2n(c1=S)C[C@@H](c1c(F)ccc(F)c1F)C2 [Example 266, (R)-3-(2-methyl-3-thioxo-6-(2,3,6-trifluorophenyl)-2,5,6,7-tetrahydro-3H-pyrrolo[1,2-c]imidazol-1-yl)-1-morpholinopropan-1-one]
  Plasma (0.01 μM), activity in % of control: 85.3 % of control
  Plasma (0.1 μM), activity in % of control: 56.0 % of control

## Cn1c(CCC(=O)N2CCC[C@H]2CO)c2n(c1=S)C[C@@H](c1c(F)ccc(F)c1F)C2 [Example 267, 1-((S)-2-(hydroxymethyl)pyrrolidin-1-yl)-3-((R)-2-methyl-3-thioxo-6-(2,3,6-trifluorophenyl)-2,5,6,7-tetrahydro-3H-pyrrolo[1,2-c]imidazol-1-yl)propan-1-one]
  Plasma (0.01 μM), activity in % of control: 90.8 % of control
  Plasma (0.1 μM), activity in % of control: 55.8 % of control

## Cn1c(CCC(=O)Nc2ccccn2)c2n(c1=S)C[C@H](c1c(F)ccc(Cl)c1F)C2 [Example 268, (S)-3-(6-(3-chloro-2,6-difluorophenyl)-2-methyl-3-thioxo-2,5,6,7-tetrahydro-3H-pyrrolo[1,2-c]imidazol-1-yl)-N-(pyridin-2-yl)propanamide]
  Plasma (0.01 μM), activity in % of control: 99.8 % of control
  Plasma (0.1 μM), activity in % of control: 57.7 % of control

## Cn1c(CCC(=O)Nc2ccccn2)c2n(c1=S)C[C@@H](c1c(F)cccc1F)C2 [Example 269, (R)-3-(6-(2,6-difluorophenyl)-2-methyl-3-thioxo-2,5,6,7-tetrahydro-3H-pyrrolo[1,2-c]imidazol-1-yl)-N-(pyridin-2-yl)propanamide]
  Plasma (0.01 μM), activity in % of control: 105.6 % of control
  Plasma (0.1 μM), activity in % of control: 83.7 % of control

## Cn1c(CCC(=O)NCC#N)c2n(c1=S)C[C@@H](c1c(F)ccc(F)c1F)C2 [Example 270, (R)—N-(cyanomethyl)-3-(2-methyl-3-thioxo-6-(2,3,6-trifluorophenyl)-2,5,6,7-tetrahydro-3H-pyrrolo[1,2-c]imidazol-1-yl)propanamide]
  Plasma (0.01 μM), activity in % of control: 88.1 % of control
  Plasma (0.1 μM), activity in % of control: 53.8 % of control

## Cn1c(CC(=O)NC2CCCC2)c2n(c1=S)C[C@@]1(c3c(F)ccc(Cl)c3F)C[C@@H]21 [Example 271, 2-((5aS,6aR)-5a-(3-chloro-2,6-difluorophenyl)-2-methyl-3-thioxo-2,3,5,5a,6,6a-hexahydrocyclopropa[3,4]pyrrolo[1,2-c]imidazol-1-yl)-N-cyclopentylacetamide]
  Plasma (0.01 μM), activity in % of control: 62.1 % of control
  Plasma (0.1 μM), activity in % of control: 13.2 % of control

## Cn1c(CC(=O)NC2CCCC2)c2n(c1=S)C[C@@]1(c3cc(Br)ccc3F)C[C@@H]21 [Example 272, 2-((5aS,6aR)-5a-(5-bromo-2-fluorophenyl)-2-methyl-3-thioxo-2,3,5,5a,6,6a-hexahydrocyclopropa[3,4]pyrrolo[1,2-c]imidazol-1-yl)-N-cyclopentylacetamide]
  Plasma (0.01 μM), activity in % of control: 73.5 % of control
  Plasma (0.1 μM), activity in % of control: 22.7 % of control

## Cn1c(CC(=O)NC2CCCC2)c2n(c1=S)C[C@@]1(c3cc(Cl)ccc3F)C[C@@H]21 [Example 273, 2-((5aS,6aR)-5a-(5-chloro-2-fluorophenyl)-2-methyl-3-thioxo-2,3,5,5a,6,6a-hexahydrocyclopropa[3,4]pyrrolo[1,2-c]imidazol-1-yl)-N-cyclopentylacetamide]
  Plasma (0.01 μM), activity in % of control: 86.6 % of control
  Plasma (0.1 μM), activity in % of control: 28.9 % of control

## Cn1c(CC(=O)N[C@@H]2CCOC2)c2n(c1=S)C[C@@]1(c3c(F)ccc(Cl)c3F)C[C@@H]21 [Example 274, 2-((5aS,6aR)-5a-(3-chloro-2,6-difluorophenyl)-2-methyl-3-thioxo-2,3,5,5a,6,6a-hexahydrocyclopropa[3,4]pyrrolo[1,2-c]imidazol-1-yl)-N—((R)-tetrahydrofuran-3-yl)acetamide]
  Plasma (0.01 μM), activity in % of control: 55.9 % of control
  Plasma (0.1 μM), activity in % of control: 11.2 % of control

## Cn1c(CC(=O)O)c2n(c1=S)C[C@@]1(c3cc(Br)ccc3F)C[C@@H]21 [Example 275, 2-((5aS,6aR)-5a-(5-bromo-2-fluorophenyl)-2-methyl-3-thioxo-2,3,5,5a,6,6a-hexahydrocyclopropa[3,4]pyrrolo[1,2-c]imidazol-1-yl)acetic acid]
  Plasma (0.01 μM), activity in % of control: 79.0 % of control
  Plasma (0.1 μM), activity in % of control: 24.4 % of control

## Cn1c(CC(=O)O)c2n(c1=S)C[C@@]1(c3cc(Cl)ccc3F)C[C@@H]21 [Example 276, 2-((5aS,6aR)-5a-(5-chloro-2-fluorophenyl)-2-methyl-3-thioxo-2,3,5,5a,6,6a-hexahydrocyclopropa[3,4]pyrrolo[1,2-c]imidazol-1-yl)acetic Acid]
  Plasma (0.01 μM), activity in % of control: 83.3 % of control
  Plasma (0.1 μM), activity in % of control: 33.3 % of control

Reference: patent publication US11434242B2, “Dopamine-b-hydroxylase inhibitors” (BIAL-PORTELA & Cª, S.A., priority 2017, dated 2022)
